Test results as given in patent publication US20090036496A1, “Treatment of Stress Urinary Incontinence and Mixed Urinary Incontinence” (UROGENE, priority 2005, published 2009).

Assays:
[1] = tested on: alpha1-adrenergic receptors; experiment: Contraction of isolated rabbit urethra rings by activation of alpha1-adrenergic receptors; details: for contraction of the urethra induced by the compound itself: cumulative concentrations 0.01 to 100 μM, relative to norepinephrine 30 μM
Description: The compounds were tested in ex vivo experiments carried out on rabbit urethra.
The tests were carried out on isolates of rabbit urethra which were obtained as follows.
The whole urethra was excised and washed in order to remove the adipose and connective tissues, and then cut into rings approximately 4 mm in diameter, one at the median level, the other at the distal level of the urethra.
In this trial, the ability of each of the four compounds mentioned above to induce, by themselves, a contraction of the urethra by activation of the alpha1-adrenergic receptors, compared with norepinephrine used as a positive control, is measured.
The protocol followed is an adaptation of the protocol described by Van der Graaf et al. (Eur. J. Pharmacol., 327: 25-32, 1997).
Krebs-Henseleit solution was modified by adding propanolol (1 μM), normetanephrin (1 μM), desipramine (0.1 μM) and deoxycorticosterone (3 μM) in order to block the beta-adrenergic receptors, catechol-O-methyltransferase and the uptake of noradrenalin type 1 (neuronal) and 2 (extraneuronal), respectively.
An initial force of 1 g is applied to the samples. After a period of 60 minutes of equilibration, the rings are brought into contact with norepinephrine (30 μM), twice consecutively, separated by washing for 60 minutes. The rings that have a contractile response of less than 1 g are discarded and new rings are optionally prepared. After washing for 30 minutes, the compound tested is added at cumulative concentrations ranging from 0.01 to 100 μM. In parallel, the solvent of the compound (distilled water or DMSO) is tested thereon so as to obtain a control curve.
In the case of HP748, an additional experiment was carried out in which prazosin (1 μM), an alpha1-adrenergic receptor antagonist, was incubated for 30 minutes before the addition of HP748.
The results are expressed as percentage of the contraction induced by the second addition of norepinephrine at 30 μM as a function of the concentration of the compound. The latter is represented on a logarithmic scale, by the logarithm of the value in mol/l.

[2] = tested on: female New Zealand white rabbits; experiment: Electromyography of striated sphincter (SS-EMG) under irritated bladder conditions; type: in vivo, rabbit
Description: (§1) The effects of cumulative doses of HP749 (0, 1, 3 and 5 mg/kg i.v.), or duloxetine (0, 1 and 2 mg/kg i.v.) on the electromyographic and cystometric parameters were evaluated in anaesthetized female New Zealand white rabbits (n=12/group) under irritated conditions (continuous transvesical infusion of 0.5% acetic acid). The study was performed in accordance with the ethical standards of the Helsinki declaration.
(§2) At the beginning of the cystometry the bladder was emptied. The liquid infusion to stabilize the cyclic voidings was maintained at least for 60 minutes, continuously recording the cystometrogram. Then, placebo was intravenously administered, and the cystometrogram was recorded for other 40 minutes. Consecutive doses of duloxetine or HP749 were then administered with an interval of 40 minutes.
Two electrodes (30-gauge needle) were placed percutaneously into the striated anal sphincter approximately 5-10 mm. lateral to the anus. […] SS-EMG was continuously recorded during the cystometry.
(§3) An intravenous cannula was connected to the ear vein for vehicle (saline) or drug administration. The drugs were freshly prepared before each experiment in saline. Drugs were administered intravenously in a volume of 1 ml. followed by 1 ml. flush of physiological saline.
(§4) All values were expressed as the mean±SEM. Duloxetine or HP749 effects were analyzed and compared with control (saline) values using Wilcoxon rank test. Mann-Whitney U test was performed to compare the effects of duloxetine and HP-749. Statistical significance was considered at p<0.05.

[3] = tested on: female New Zealand white rabbits; experiment: Continuous cystometry under irritated bladder conditions (0.5% acetic acid infusion); type: in vivo, rabbit; details: for bladder capacity: p<0.01
Description: as §1
Continuous cystometry was performed with the animal supine using a subcutaneous cystostomy. A T tube was connected to the multiperforable plug using a 20-gauge needle, online with a TRA021 pressure transducer and a micro-injection pump. Room-temperature diluted acetic acid was infused into the bladder at a rate of 1.4 ml/hr to elicit repetitive voidings, which allowed collection of data for a large number of voiding cycles. Continuous cystometry was recorded on a PowerLab 4/25.
as §2, §3, §4

Q: Which “contraction of the urethra induced by the compound itself” value (“contraction of the urethra induced” for short) [1] does the source give for `Cc1cn(Nc2ccncc2F)c2ccccc12` [HP183, reference compound] here?
A: Its value is “no effect”.

Q: With `CCCN(c1ccncc1F)n1cc(C)c2ccccc21` [HP184, reference compound] as the molecule, how does the “contraction of the urethra induced” value [1] read?
A: The value was “no effect”.

Q: For `c1ccc2c(c1)ccn2Nc1ccncc1` [HP748, N-(4-pyridinyl)-1H-indol-1-amine], which “contraction of the urethra induced” value [1] is on record?
A: The value was “induces a significant contraction”.

Q: What about the “contraction of the urethra after preincubation with prazosin” value ([1]; preincubation with 1 μM of prazosin for 30 minutes) of the same molecule?
A: The value was “completely blocked”.

Q: Which results are given for `CCCN(c1ccncc1)n1ccc2ccccc21` [HP749, N-propyl-N-(4-pyridinyl)-1H-indol-1-amine]?
A: contraction of the urethra induced by the compound itself [1]: no effect; effect on SS-EMG compared with duloxetine ([2]; Mann-Whitney U test, p<0.05): significantly higher than those of duloxetine; SS-EMG increase ([2]; all doses tested (1, 3 and 5 mg/kg i.v.), p<0.01): 2.5 fold; bladder capacity ([3]; 1 mg/kg i.v.): 172 % of the control; bladder capacity ([3]; 5 mg/kg i.v.): 235 % of the control; effect on bladder capacity compared with duloxetine ([3]; Mann-Whitney U test, p<0.05): significantly higher than those of duloxetine

Q: Which SS-EMG activity ([2]; 2 mg./kg i.v., p<0.01) does the source give for `CNCC[C@H](Oc1cccc2ccccc12)c1cccs1` [duloxetine, reference compound] here?
A: The SS-EMG activity was “significantly increased”.

Q: And the bladder capacity ([3]; duloxetine 1 and 2 mg/kg i.v. cumulative)?
A: The bladder capacity was “increased dose-dependently”.
